Data from patent publication US20250221413A1, “Use and Preparation Method of Sulfoxamyl, and Oxidation System” (priority 2023, published 2025).
Values after ≈ are worked out from the molar mass of the structure shown. Values joined by “and” are separate entries in the source; they are usually repeats but may differ in a detail not shown here. Equal values may be shown once. “Also recorded” adds a separate entry of the source. Read-outs that look alike come from different tables or passages of the source.

Test system: Meloidogyne incognita
Assay: Indoor toxicity test against Meloidogyne incognita second-instar larvae (J2)
Conditions: for LC50 / mortality at 3.1 µg/mL / mortality at 6.25 µg/mL / mortality at 12.5 µg/mL / mortality at 25 µg/mL / mortality at 50 µg/mL / mortality at 100 µg/mL: Meloidogyne incognita
Experimental: Materials: the tested nematodes were collected from three different areas, namely cucumber crops in Dawenkou Town, Tai'an City, Shandong Province, and were all identified as southern root-knot nematodes (Meloidogyne incognita). The diseased roots were washed, cut into small sections of 0.5 cm to 1 cm, rinsed in 1% NaClO solution for about 30 s to 60 s, and rinsed with 200-mesh and 500-mesh sieves to collect nematode eggs for later use. The collected eggs were incubated at 25° C. using the Bayman funnel method and the second-instar larvae were collected 1 time per 24 h to ensure that the second-instar larvae selected each time were fresh and of consistent vitality.
The agent was 98% sulfoxamyl technical, and the comparison agents were 96% oxamyl technical and 87% fosthiazate technical.
The preparation for the agent was in accordance with the provisions for preparation of the liquid medicine in the Agricultural Industry Standard of the People's Republic of China NYT 1833.1-2009 “Guideline for laboratory bioassay of pesticides”, as shown in Table 6.
Methods: according to the experimental plan, the test agent was diluted to different mass concentrations, and 0.5 mL of the agent solution and 0.5 mL of the nematode solution (containing about 100 nematodes) were added into a 24-well cell culture plate. The treatment with each concentration of the agent was repeated 4 times, and auxiliary agent control and blank control were also conducted. […]

SMILES: CNC(=O)O/N=C(/C(=O)N(C)C)S(C)(=O)=O [Sulfoxamyl, N,N-dimethyl-2-[[[(methylamino)carbonyl]oxy]imino]-2-(methylsulfonyl)acetamide]
- Corrected mortality (3.1 mg/L, 24 h): 16.24% and 26.66% and 16.93%
- Mortality (3.1 mg/L, 24 h): 17.27% and 27.56% and 17.95%
- Corrected mortality (3.1 mg/L, 48 h): 26.21% and 30.50% and 18.49%
- Death count (3.1 mg/L, 48 h): 21 and 30 and 40 and 23
- Mortality (3.1 mg/L, 48 h): 27.27% and 31.50% and 19.66%
- Corrected mortality (3.1 mg/L, 72 h): 36.09% and 39.84% and 31.21%
- Death count (3.1 mg/L, 72 h): 39 and 41 and 52 and 38
- Mortality (3.1 mg/L, 72 h): 37.27% and 40.94% and 32.48%
- Corrected mortality (6.25 mg/L, 24 h): 22.19% and 15.49% and 28.36%
- Death count (6.25 mg/L, 24 h): 19 and 25 and 20 and 31
- Mortality (6.25 mg/L, 24 h): 23.15% and 16.53% and 29.25%
- Corrected mortality (6.25 mg/L, 48 h): 30.48% and 22.86% and 33.96%
- Death count (6.25 mg/L, 48 h): 36 and 34 and 29 and 37
- Mortality (6.25 mg/L, 48 h): 31.48% and 23.97% and 34.91%
- Corrected mortality (6.25 mg/L, 72 h): 32.08% and 27.59% and 38.49%
- Death count (6.25 mg/L, 72 h): 41 and 36 and 35 and 42
- Mortality (6.25 mg/L, 72 h): 33.33% and 28.93% and 39.62%
- Corrected mortality (12.5 mg/L, 24 h): 43.94% and 48.97% and 49.86%
- Death count (12.5 mg/L, 24 h): 56 and 54 and 62 and 53
- Mortality (12.5 mg/L, 24 h): 44.63% and 49.60% and 50.48%
- Corrected mortality (12.5 mg/L, 48 h): 56.40% and 56.17% and 57.49%
- Death count (12.5 mg/L, 48 h): 67 and 69 and 71 and 61
- Mortality (12.5 mg/L, 48 h): 57.02% and 56.80% and 58.10%
- Corrected mortality (12.5 mg/L, 72 h): 61.27% and 67.40% and 67.01%
- Death count (12.5 mg/L, 72 h): 71 and 75 and 85
- Mortality (12.5 mg/L, 72 h): 61.98% and 68.00% and 67.62%
- Corrected mortality (25 mg/L, 24 h): 58.55% and 63.70% and 68.85%
- Death count (25 mg/L, 24 h): 78 and 75 and 68 and 90
- Mortality (25 mg/L, 24 h): 59.06% and 64.15% and 69.23%
- Corrected mortality (25 mg/L, 48 h): 63.25% and 67.46% and 68.78%
- Death count (25 mg/L, 48 h): 78 and 81 and 72 and 90
- Mortality (25 mg/L, 48 h): 63.78% and 67.92% and 69.23%
- Corrected mortality (25 mg/L, 72 h): 74.33% and 84.62% and 68.65%
- Death count (25 mg/L, 72 h): 78 and 95 and 90
- Mortality (25 mg/L, 72 h): 74.80% and 84.91% and 69.23%
- Corrected mortality (50 mg/L, 24 h): 82.02%
- Death count (50 mg/L, 24 h): 101 and 88 and 92
- Mortality (50 mg/L, 24 h): 82.24%
- Death count (50 mg/L, 48 h): 108 and 95 and 111 and 98
- Corrected mortality (50 mg/L, 72 h): 92.38%
- Death count (50 mg/L, 72 h): 115 and 99 and 120 and 101
- Mortality (50 mg/L, 72 h): 92.52%
- Death count (100 mg/L, 24 h): 105 and 102 and 120 and 107
- Death count (100 mg/L, 48 h): 108 and 102 and 121
- Death count (100 mg/L, 72 h): 109 and 102 and 121 and 108
- LC90 (24 h): 52.89 µg/mL (≈ 210 µM)
- LC90 (48 h): 56.41 µg/mL (≈ 225 µM)
- LC90 (72 h): 36.84 µg/mL (≈ 147 µM)
- LC50 (24 h): 12.5 µg/mL (≈ 49.8 µM)
- mortality at 3.1 µg/mL (24 h, 3.1 mg/L): 14.4%
- mortality at 6.25 µg/mL (24 h, 6.25 mg/L): 16.4%
- mortality at 12.5 µg/mL (24 h, 12.5 mg/L): 51.4%
- mortality at 25 µg/mL (24 h, 25 mg/L): 66.1%
- mortality at 50 µg/mL (24 h, 50 mg/L): 86.3%
- mortality at 100 µg/mL (24 h, 100 mg/L): 96.3%
- mortality at 3.1 µg/mL (24 h, read-out: Corrected mortality, 3.1 mg/L, 24 h): 13.4%
- mortality at 6.25 µg/mL (24 h, read-out: Corrected mortality, 6.25 mg/L, 24 h): 15.3%
- mortality at 12.5 µg/mL (24 h, read-out: Corrected mortality, 12.5 mg/L, 24 h): 50.8%
- mortality at 25 µg/mL (24 h, read-out: Corrected mortality, 25 mg/L, 24 h): 65.7%
- mortality at 50 µg/mL (24 h, read-out: Corrected mortality, 50 mg/L, 24 h): 86.2%
- mortality at 100 µg/mL (24 h, read-out: Corrected mortality, 100 mg/L, 24 h): 96.3%
- LC50 (48 h): 10.2 µg/mL (≈ 40.7 µM)
- mortality at 3.1 µg/mL (48 h, 3.1 mg/L): 20.2%
- mortality at 6.25 µg/mL (48 h, 6.25 mg/L): 31%
- mortality at 12.5 µg/mL (48 h, 12.5 mg/L): 61.5%
- mortality at 25 µg/mL (48 h, 25 mg/L): 66.1%
- mortality at 50 µg/mL (48 h, 50 mg/L): 92.3%
- mortality at 100 µg/mL (48 h, 100 mg/L): 99.1%
- mortality at 3.1 µg/mL (48 h, read-out: Corrected mortality, 3.1 mg/L, 48 h): 19%
- mortality at 6.25 µg/mL (48 h, read-out: Corrected mortality, 6.25 mg/L, 48 h): 30%
- mortality at 12.5 µg/mL (48 h, read-out: Corrected mortality, 12.5 mg/L, 48 h): 60.9%
- mortality at 25 µg/mL (48 h, read-out: Corrected mortality, 25 mg/L, 48 h): 65.6%
- mortality at 50 µg/mL (48 h, read-out: Corrected mortality, 50 mg/L, 48 h): 92.2%
- mortality at 100 µg/mL (48 h, read-out: Corrected mortality, 100 mg/L, 48 h): 99.1%
- LC50 (72 h): 7.41 µg/mL (≈ 29.5 µM)
- mortality at 3.1 µg/mL (72 h, 3.1 mg/L): 37.5%
- mortality at 6.25 µg/mL (72 h, 6.25 mg/L): 35.3%
- mortality at 12.5 µg/mL (72 h, 12.5 mg/L): 65.1%
- mortality at 25 µg/mL (72 h, 25 mg/L): 66.1%
- mortality at 50 µg/mL (72 h, 50 mg/L): 98.3%
- mortality at 100 µg/mL (72 h, 100 mg/L): 100%
- mortality at 3.1 µg/mL (72 h, read-out: Corrected mortality, 3.1 mg/L, 72 h): 36.3%
- mortality at 6.25 µg/mL (72 h, read-out: Corrected mortality, 6.25 mg/L, 72 h): 34.1%
- mortality at 12.5 µg/mL (72 h, read-out: Corrected mortality, 12.5 mg/L, 72 h): 64.5%
- mortality at 25 µg/mL (72 h, read-out: Corrected mortality, 25 mg/L, 72 h): 65.5%
- mortality at 50 µg/mL (72 h, read-out: Corrected mortality, 50 mg/L, 72 h): 98.3%
- mortality at 100 µg/mL (72 h, read-out: Corrected mortality, 100 mg/L, 72 h): 100%
- killing (indoor nematicidal) activity against Meloidogyne incognita J2, in words (compared with oxamyl and fosthiazate): high killing activity; also recorded: higher than that of oxamyl; also recorded: higher than that of fosthiazate
